Measured values reported in patent US20070264340A1, “Aromachemicals” (Flexitral, Inc., priority 2006, published 2007).

Assay: stability to acid
Type: physicochemical

With CC(C)=CCCC1(C)CC1C=O (racemic) [2-methyl-2-(4-methylpent-3-en-1-yl)cyclopropanecarbaldehyde] the stability to acid was “stable to acid”.
